Values after ≈ are worked out from the molar mass of the structure shown.
Experiments:
[1] = tested on: Herpes simplex type 1 virus (HFEM strain); experiment: Plaque reduction of Herpes simplex type 1 virus (HFEM strain) in Vero cells; type: cell-based, Herpes simplex virus type 1; conditions: for IC50: Human alphaherpesvirus 1, 144 h, HSV-1 HFEM strain, 37° C., 6 days; for IC50 / ED50 (concentration reducing the plaque number at 50%): Vero cells; for ED50 (concentration reducing the plaque number at 50%): HSV-1 strain HFEM, 8640 min
From the text: (§1) The same method was used to determine the ED50 (concentration reducing the plaque number at 50%) of the E/Z mixture against the KOS and SK16 strains of Herpes simplex virus type 1 and the ED50 of the E/Z mixture and the separated isomers ("peak 1" and "peak 2") against the HFEM strain.

[2] = african green monkey, vero cells
Description: Vero (African Green Monkey Kidney) cells were grown to confluence in 6 well multidishes, each well being 3.5 cm in diameter. The cells were incubated with Herpes simplex type 1 virus (HFEM strain) and overlaid with 0.5 mL of 0.9% agarose (w/v) in maintenance medium containing the test compound at a range of concentrations from 200 μg/mL in half-log dilution steps. The virus infected cultures were then incubated at 37° C. for 6 days before fixing in 4% formaldehyde solution and staining with carbolfuchsin. The dishes were then examined to find that concentration of test compound causing a 50% reduction in the number of virus plaques formed (PDD50 value) and the minimum concentration of test compound which killed the cell monolayer, leaving a clear zone devoid of cells and virus plaques (MTD).

[3] = tested on: Herpes simplex virus type 1 (SCl6 strain); experiment: Plaque reduction of Herpes simplex virus type 1, SCl6 strain; type: cell-based; conditions: Human alphaherpesvirus 1, 144 h; HSV-1 strain SCl6, Vero cells; read-out: ED50 (concentration reducing the plaque number at 50%)
From the text: as §1

[4] = tested on: human diploid fibroblast MRC-5 cell line; experiment: Anti-host cell activity: proliferation of human diploid fibroblast MRC-5 cells; type: cell-based; conditions: even at 200 μg/ml
[5] = tested on: Herpes simplex virus type 1 (KOS strain); experiment: Plaque reduction of Herpes simplex virus type 1, KOS strain; type: cell-based; conditions: Human alphaherpesvirus 1, 144 h; HSV-1 strain KOS, Vero cells; read-out: ED50 (concentration reducing the plaque number at 50%)
From the text: as §1

[6] = Anti-host cell activity: growth of Vero cells; type: cell-based, African Green Monkey; conditions: monkey, vero cells; Vero cell growth versus antiviral activity; read-out: Therapeutic ratio
Description: (§2) Vero cells seeded at low density were grown in the presence of E/Z-5-(2-chloro-1,2-difluorovinyl)-2'-deoxyuridine for 72 h. During this time the cells doubled in number approximately once every 24 h. […] 5-(2-Chloro-1,2-difluorovinyl)-2'-deoxyuridine thus has a therapeutic ratio of >5.

Vero cells = experiment: Anti-host cell activity: growth of Vero cells; type: cell-based, African Green Monkey; conditions: Vero cells, 72 h
Description: as §2

O=c1[nH]c(=O)n([C@H]2C[C@H](O)[C@@H](CO)O2)cc1I [5-iodo-2'-deoxyuridine, reference compound]
IC50 [1]: 3 mg/L (≈ 8.47 µM)
MCC at 144 h [2]: > 100 µg/mL

O=c1[nH]c(=O)n([C@H]2C[C@H](O)[C@@H](CO)O2)cc1C(F)=C(F)Cl (single isomer, unassigned) [Peak 2]
ED50 (concentration reducing the plaque number at 50%) [1]: 24 ± 6 mg/L (≈ 73.9 µM)
Activity of the separated isomers in the screens ([1]; in words, at the levels tested): Only one of the isomers is active at the levels tested

O=c1[nH]c(=O)n([C@H]2C[C@H](O)[C@@H](CO)O2)cc1C(F)=C(F)Cl [E/Z-5-(1,2-Difluoro-2-chlorovinyl)-2'-deoxyuridine]
EC50 [3]: 21 mg/L (≈ 64.7 µM)
ED50 (concentration reducing the plaque number at 50%) ([1]; listed as E/Z): 24 ± 3 mg/L (≈ 73.9 µM)
IC50 [1]: 14 mg/L (≈ 43.1 µM)
Effect on cell proliferation [4]: little effect on cell proliferation
MCC at 144 h [2]: > 200 µg/mL
EC50 [5]: 20 mg/L (≈ 61.6 µM)
selectivity ratio [6]: > 5
Cell doubling time in the presence of compound (Vero cells): ~24 h
Depression of cell growth (Vero cells; 100 μg/ml): only slight depression of cell growth was observed

O=c1[nH]c(=O)n([C@H]2C[C@H](O)[C@@H](CO)O2)cc1C(F)=C(F)Cl (single isomer, unassigned) [Peak 1]
ED50 (concentration reducing the plaque number at 50%) [1]: > 100 mg/L
